Data set [1] relates to transplanted bone marrow cells. The data set can be described thus: Bone marrow regeneration from transplanted bone marrow cells after lethal irradiation (BM cells, CFU-GM). Type of data set: in vivo, C57B1 mice. The settings on record: for CFU-GM per femur / CFU-GM/10^5 nucleated BM cells: CCompound1 4.5 mg per kg i.p. daily, day -3 to day +3. On the procedure:
C57B1 female (10-14 weeks old) mice received sublethal (250 cGy) whole body irradiation from a ^137Cesium source (day 0). Starting three days before irradiation, animals received daily 4.5 mg per kg of CCompound1 via intraperitoneal injection; this treatment also was provided on day 0 and once daily for three days subsequent to irradiation. In another group, mice were injected only with physiological saline. The subsequent procedure has been reported in Vas, V., Fajka-Boja, R., Ion, G. A., Dudics, V., Monostori, E. and Uher, F., “Biphasic effect of recombinant Galectin-1 on the growth and death of early hematopoietic cells,” Stem Cells, 23, 279-287 (2005). Briefly, bone marrow was flushed from the femurs with Iscove's modified Dulbecco's medium (Gibco BRL, Gaithersburg, Md., USA), and after standard erythrocyte lysis, nucleated cells were counted using a hemocytometer. Samples were taken on days 0, 1, 3, and 10. To measure the formation of the granulocyte-macrophage colony-forming units (CFU-GM), a semisolid colony-forming cell assay was used. Nucleated bone marrow cells (isolated on the days as indicated above) were plated in 35-mm Petri dishes (Costar, Cambridge, Mass., USA) in Iscove's modified Dulbecco's medium supplemented with 1% methylcellulose, 30% horse serum (Gibco), 10% WEHI-3B conditioned medium as a source of growth factors, 4 mM L-glutamine, 0.25 mM a-thioglycerol (Gibco), 1% deionized bovine serum albumine (Sigma), and antibiotics (Gibco). Cells were cultured at 37° C. in 5% CO2/95% air atmosphere and colonies were counted on day 7 in the same dish. Colonies containing at least 50 cells were counted which is a generally accepted value in the literature. Each value represents the mean±st. dev. of 9 samples (3 parallel dishes from each animal).
In this experiment the goal was to determine if CCompound1 can enhance expansion of transplanted bone marrow cells infused after applying a lethal dose of whole body irradiation (which reduces the number of bone marrow cells by more than 90%). C57B1 female mice (10-14 weeks old) were subjected to 900 cGy whole body irradiation from a ^137Cesium source which was followed within 6 hours by infusion of one million donor nucleated bone marrow cells by tail vein injection. Starting 3 days before irradiation, animals received daily 4.5 mg per kg of CCompound1 via intraperitoneal injection; this treatment also was provided on day 0 and once daily for the subsequent 3 days after irradiation. In another group, mice were injected only with physiological saline.
Bone marrow cells were collected on day 0 from non-irradiated animals as well as on days 6, 14, 28 and 42 after irradiation and bone marrow transplantation. Nucleated bone marrow cells were quantified and CFU-GM assay was performed as described in Example 3 while blood profiling was performed as described in Example 1. For each group, on the indicated days bone marrow and blood samples were collected from 3 animals. Each value presented in Table 5 and Table 6 represents the mean±st. dev. of 3 samples (derived from 3 animals).

In data set [2] the test system is human bone marrow-derived mesenchymal stem cells. The data set can be described thus: Survival of mesenchymal stem cells in the absence of serum (viable cell number). Type of data set: cell-based. The following applies: serum-free medium. On the procedure:
Bone marrow aspirates were taken from normal adult donors after an informed consent was signed. Bone marrow mesenchymal stem cells were prepared by a widely used technique as described earlier by others. Pittenger, M. F., Mackay, A. M., Beck, S. C., Jaiswal, R. K., Douglas, R., Mosca, J. D., Moorman, M. A., Simonetti, D. W., Craig, S. and Marshak, D. R., “Multilineage potential of adult human mesenchymal stem cells,” Science, 284, 143-147 (1999). […] When cells grew to about 80% confluence, they were suspended and harvested by incubating with a ready-made solution containing 0.25% trypsin and 1 mM EDTA (Sigma-Aldrich, St. Louis, Mo.) for 5 minutes at 37° C.; this cell suspension is designated as passage 1. […]
The total numbers of nucleated and viable cells were determined with a hemocytometer, using Turck's solution and trypan blue stain, respectively. […]
In the experiments reported in Table 7 and Table 8, human bone marrow-derived mesenchymal stem cells were split at 1:3 and then incubated for 24 hours in 10% fetal calf serum-containing medium to about 30-35% confluence. […] The data are expressed as mean values±std. dev. of 3 determinations.

Another data set concerns healthy mice. The data set can be described thus: Toxicity in healthy mice. It counts as in vivo. The following applies: for well tolerated maximal dose: mice weighing about 25 g. On the procedure: Accordingly, a well tolerated maximal dose for CCompound1 or CCompound3 in mice (weighing about 25 g) is […] which corresponds to a dose of 4.6 mg/kg. Therapeutically effective concentrations of CC compounds in humans will exert significant promoting effects on bone marrow regeneration without causing toxicity in other normal healthy tissues.

Where [3] appears, read: day 6 after 900 cGy irradiation and bone marrow transplantation.
The mark [4] stands for this setting: day 14 after 900 cGy irradiation and bone marrow transplantation.
Setting [5] is: day 28 after 900 cGy irradiation and bone marrow transplantation.
[6] abbreviates: day 42 after 900 cGy irradiation and bone marrow transplantation.
Setting [7] is: single 450 μmole (about 4.6 mg/kg) or daily 400 μmole for 5 consecutive days.

On to `Cc1c(OCC(O)C[N+](C)(C)C)cc2c(=O)c3ccccc3sc2c1C.[Cl-]` (centres unmarked) [CCcompound1, [3-(3,4-Dimethyl-9-oxo-9H-thioxanthen-2-yloxy)-2-hydroxypropyl]trimethyl-ammonium chloride], for which the CFU-GM per femur in data set [1] (setting [3]) is recorded as 134.9; in data set [1] (setting [4]) it was 650.4; in data set [1] (setting [5]) it was 1,286.4; in data set [1] (setting [6]), 992.4. Besides, the “CFU-GM/10^5 nucleated BM cells” value in data set [1] (setting [3]) worked out at 44.8 ± 5.1; in data set [1] (setting [4]), 81.2 ± 5.3; in data set [1] (setting [5]) it was 125.5 ± 9.1; in data set [1] (setting [6]) it was 71.5 ± 5.3. Moreover, the “level of bone marrow re-population in the femur, treated versus untreated animals” value in data set [1] (day 6 following transplantation) was “about 5.3 fold”; in data set [1] (day 14 following transplantation), ~2.9 fold. For the same molecule, the figures for the “effect on cell numbers (survival)” value in data set [2] (10 μM) and in data set [2] (50 μM) were “did not reach statistical significance” and “no effect”, respectively. The “well tolerated maximal dose” value in the data set on healthy mice was 450 μmole/animal; in the data set with healthy mice (corresponds to 450 μmole/animal) it was 4.6 mg/kg. In the data set on healthy mice (setting [7]), the “change in the composition of various blood constituents” value was “did not cause any significant change”. For the same molecule, in the data set on healthy mice (setting [7]), the “pathological alterations in the liver, brain, kidney, heart, spleen, intestine, and lung” value was “did not induce significant pathological alterations”. Moreover, the solubility in water entry in the data set “Solubility in water” is reported as “soluble in water”.

For the origin of these results see patent US7781423B2, “Compounds to promote regeneration of bone marrow” (priority 2007, dated 2010).
